Reference: ChEMBL document CHEMBL6092167, “Phosphorylation as an Effective Tool to Improve Stability and Reduce Toxicity of Antimicrobial Peptides” (J Med Chem, 2024)
≈ marks a conversion by molar mass, not a printed value. Calls of active or inactive are those of the source. The calls are words filed in the database; no cut-off is given here. Non-standard residues stand in square brackets, D forms with d. Residues, ends and D or L forms follow the SMILES beside them. Bip = N[C@@H](Cc1ccc(-c2ccccc2)cc1)C(=O)O; pY = N[C@@H](Cc1ccc(OP(=O)(O)O)cc1)C(=O)O

What was measured:
[1] = system: Escherichia coli; assay: Antibacterial activity against Escherichia coli ATCC 25922 assessed as fold increase in MIC preincubated with serum for 6 hrs followed by 15 mins inactivation prior to bacteria addition and measured after 18 to 24 hrs; type: functional; settings: time 18-24 hrs
[2] = system: Klebsiella pneumoniae; assay: Durg resistance development in Klebsiella pneumoniae ATCC 700603 measured after 20 passage; type: functional, organism-based
[3] = molecular target: Trypsin (Homo sapiens, UniProt P07477+P07478+P35030); assay: Stability of compound assessed as trypsin (unknown origin) mediated compound degradation; type: ADME, protein assay
[4] = system: Staphylococcus aureus; assay: Antibacterial activity against Staphylococcus aureus ATCC 25923 infected in BALB/c mouse systemic infection model assessed as reduction in inflammatory response in lung tissue at 20 mg/kg, ip pre-infected for 2 hrs followed by compound addition and measured after 8 hrs postinfection; type: functional, organism-based; settings: time 6.0 hrs
[5] = system: Klebsiella pneumoniae; assay: Antibacterial activity against Klebsiella pneumoniae ATCC 700603 infected in BALB/c mouse lung infection model assessed as removal of bacterial load at 5 mg/kg, ip administered twice daily for 3 days and measured after 6 days; type: functional; settings: time 9 day
[6] = system: Staphylococcus aureus; assay: Antibacterial activity against Staphylococcus aureus ATCC 25923 infected in BALB/c mouse systemic infection model assessed as reduction in bacterial load in spleen at 20 mg/kg, ip pre-infected for 2 hrs followed by compound addition and measured after 8 hrs postinfection; type: functional, organism-based; settings: time 6.0 hrs
[7] = system: Escherichia coli; assay: Antibacterial activity against Escherichia coli 780 incubated for 18 to 24 hrs by broth microdilution method; type: functional; settings: time 18-24 hrs
[8] = Toxicity in ip dosed BALB/c mouse assessed as inflammatory cell infiltration in kidney at LD50 dose by H and E staining based assay; type: organism-based; settings: in vivo
[9] = Hemolytic activity in mouse erythrocyte incubated for 1 hr by microplate reader assay; type: toxicity, cell-based
[10] = system: Staphylococcus aureus; assay: Antibacterial activity against Staphylococcus aureus ATCC 25923 assessed as fold increase in MIC preincubated with serum for 6 hrs followed by 15 mins inactivation prior to bacteria addition and measured after 18 to 24 hrs; type: functional; settings: time 18-24 hrs
[11] = system: Staphylococcus aureus; assay: Antibacterial activity against Staphylococcus aureus 794 incubated for 18 to 24 hrs by broth microdilution method; type: functional; settings: time 18-24 hrs
[12] = system: Staphylococcus aureus; assay: Antibiofilm activity against Staphylococcus aureus ATCC 25923 assessed as eradication of preformed biofilms incubated for 24 hrs by crystal violet staining based assay; type: functional, organism-based
[13] = system: Bacillus subtilis; assay: Antibacterial activity against Bacillus subtilis ATCC 23857 incubated for 18 to 24 hrs by broth microdilution method; type: functional; settings: time 18-24 hrs
[14] = system: Escherichia coli; assay: Antibacterial activity against Escherichia coli ATCC 25922 incubated for 18 to 24 hrs by broth microdilution method; type: functional; settings: time 18-24 hrs
[15] = system: Staphylococcus aureus; assay: Antibacterial activity against Staphylococcus aureus ATCC 25923 infected in BALB/c mouse systemic infection model assessed as reduction in bacterial load in liver at 20 mg/kg, ip pre-infected for 2 hrs followed by compound addition and measured after 8 hrs postinfection; type: functional, organism-based; settings: time 6.0 hrs
[16] = system: Pseudomonas aeruginosa; assay: Antibiofilm activity against Pseudomonas aeruginosa ATCC 27853 assessed as eradication of preformed biofilms incubated for 24 hrs by crystal violet staining based assay; type: functional, organism-based
[17] = system: Klebsiella pneumoniae; assay: Antibacterial activity against Klebsiella pneumoniae ATCC 700603 infected in BALB/c mouse lung infection model assessed as improved alveolar aggregation at 5 mg/kg, ip administered twice daily for 3 days and measured after 7 days; type: functional, organism-based; settings: time 10.0 day
[18] = system: Escherichia coli; assay: Antibacterial activity against Escherichia coli 25922 assessed as interaction with LPS by measuring bacterial mortality at 2 times MIC preincubated with LPS for 1 hr followed by bacterial addition and measured after overnight by microplate reader assay; type: functional, organism-based
[19] = system: Staphylococcus aureus; assay: Antibacterial activity against Staphylococcus aureus ATCC 25923 incubated for 18 to 24 hrs by broth microdilution method; type: functional; settings: time 18-24 hrs
[20] = system: Staphylococcus aureus; assay: Antibacterial activity against Staphylococcus aureus ATCC 25923 infected in BALB/c mouse systemic infection model assessed as reduction in bacterial load in liver at 21.21 mg/kg, ip pre-infected for 2 hrs followed by compound addition and measured after 8 hrs postinfection; type: functional, organism-based; settings: time 6.0 hrs
[21] = system: Staphylococcus aureus; assay: Antibacterial activity against Staphylococcus aureus ATCC 25923 in presence of ZnCl2; type: functional, organism-based
[22] = system: Staphylococcus aureus; assay: Antibacterial activity against Staphylococcus aureus ATCC 25923 infected in BALB/c mouse systemic infection model assessed as reduction in bacterial load in spleen at 21.21 mg/kg, ip pre-infected for 2 hrs followed by compound addition and measured after 8 hrs postinfection; type: functional, organism-based; settings: time 6.0 hrs
[23] = Toxicity in BALB/c mouse assessed as mortality at 220 to 350 mg/kg, ip measured after 14 days; type: organism-based; settings: in vivo, 336 h, dose 220-350 mg/kg, time 14 day
[24] = system: Escherichia coli; assay: Antibacterial activity against Escherichia coli ATCC 25922 preincubated with serum for 6 hrs followed by 15 mins inactivation prior to bacteria addition and measured after 18 to 24 hrs; type: functional, organism-based; settings: time 18-24 hrs
[25] = system: Staphylococcus aureus; assay: Antibacterial activity against Staphylococcus aureus ATCC 25923 in presence of FeCl3; type: functional, organism-based
[26] = Toxicity in ip dosed BALB/c mouse assessed as effect on heart at LD50 dose by H and E staining based assay; type: organism-based; settings: in vivo
[27] = system: Staphylococcus aureus; assay: Antibacterial activity against Staphylococcus aureus ATCC 25923 infected in BALB/c mouse systemic infection model assessed as reduction in bacterial load in kidney at 21.21 mg/kg, ip pre-infected for 2 hrs followed by compound addition and measured after 8 hrs postinfection; type: functional, organism-based; settings: time 6.0 hrs
[28] = system: Klebsiella pneumoniae; assay: Antibacterial activity against Klebsiella pneumoniae ATCC 700603 infected in BALB/c mouse lung infection model assessed as improved alveolar aggregation at 5.31 mg/kg, ip administered twice daily for 3 days and measured after 7 days; type: functional, organism-based; settings: time 10.0 day
[29] = Toxicity in ip dosed BALB/c mouse assessed as liver edema at LD50 dose by H and E staining based assay; type: organism-based; settings: in vivo
[30] = system: Escherichia coli; assay: Antibacterial activity against Escherichia coli ATCC 25922 assessed as fold increase in MIC in presence of MgCl2; type: functional
[31] = system: Escherichia coli; assay: Antibacterial activity against Escherichia coli ATCC 25922 in presence of FeCl3; type: functional, organism-based
[32] = Toxicity in ip dosed BALB/c mouse assessed as effect on spleen at LD50 dose by H and E staining based assay; type: organism-based; settings: in vivo
[33] = system: Klebsiella pneumoniae; assay: Antibacterial activity against Klebsiella pneumoniae ATCC 700603 infected in BALB/c mouse lung infection model assessed as alveolar dilation at 5.31 mg/kg, ip administered twice daily for 3 days and measured after 7 days; type: functional, organism-based; settings: time 10.0 day
[34] = system: Escherichia coli; assay: Antibacterial activity against Escherichia coli ATCC 25922 in presence of ZnCl2; type: functional, organism-based
[35] = system: Staphylococcus aureus; assay: Antibacterial activity against Staphylococcus aureus ATCC 25923 infected in BALB/c mouse systemic infection model assessed as reduction in inflammatory response in lung tissue at 21.21 mg/kg, ip pre-infected for 2 hrs followed by compound addition and measured after 8 hrs postinfection; type: functional, organism-based; settings: time 6.0 hrs
[36] = system: Klebsiella pneumoniae; assay: Antibacterial activity against Klebsiella pneumoniae ATCC 700603 infected in BALB/c mouse lung infection model assessed as removal of bacterial load at 5.31 mg/kg, ip administered twice daily for 3 days and measured after 6 days; type: functional; settings: time 9 day
[37] = Toxicity in ip dosed BALB/c mouse assessed as kidney edema at LD50 dose by H and E staining based assay; type: organism-based; settings: in vivo
[38] = system: Staphylococcus aureus; assay: Antibacterial activity against Staphylococcus aureus ATCC 25923 preincubated with serum for 6 hrs followed by 15 mins inactivation prior to bacteria addition and measured after 18 to 24 hrs; type: functional, organism-based; settings: time 18-24 hrs

For `CC(C)C[C@H](NC(=O)[C@H](CC(C)C)NC(=O)[C@H](Cc1ccc(O)cc1)NC(=O)[C@H](CCCCN)NC(=O)[C@H](CC(C)C)NC(=O)[C@H](CCCNC(=N)N)NC(=O)[C@H](CCCCN)NC(=O)[C@H](Cc1ccc(-c2ccccc2)cc1)NC(=O)[C@H](CC(C)C)NC(=O)CN)C(N)=O` (H-GL[Bip]KRLKYLL-NH2), the “fold change (FC)” value [1] was 2, the Activity [2] was “inactive” and the Stability [3] was “Stable”. The Activity [4] was “Active”, the Activity [5] was 100% and the Activity [6] was “Active”. The MIC [7] was 8 µM (≈ 10.6 µg/mL), the Activity [8] was “Toxic” and the MHC [9] was 27.38 µM. For the same compound, the “fold change (FC)” value [10] was 2, the MIC [11] was 8 µM (≈ 10.6 µg/mL) and the Activity [12] was “Dose-dependent-effect; Superior Activity Compared To Polymyxin B And Vancomycin”. For the same compound, the MIC [13] was 4 µM (≈ 5.3 µg/mL), the MIC [14] was 8 µM (≈ 10.6 µg/mL) and the Activity [15] was “Active”. For the same compound, the Activity [16] was “Dose-dependent-effect; Superior Activity Compared To Polymyxin B And Vancomycin”, the Activity [17] was “Active” and the Activity [18] was “Active; Activity Comparable To Polymyxin B”. It also gave an MIC [19] of 8 µM (≈ 10.6 µg/mL).

For `CC(C)C[C@H](NC(=O)[C@H](CC(C)C)NC(=O)[C@H](Cc1ccc(OP(=O)(O)O)cc1)NC(=O)[C@H](CCCCN)NC(=O)[C@H](CC(C)C)NC(=O)[C@H](CCCNC(=N)N)NC(=O)[C@H](CCCCN)NC(=O)[C@H](Cc1ccc(-c2ccccc2)cc1)NC(=O)[C@H](CC(C)C)NC(=O)CN)C(N)=O` (H-GL[Bip]KRLK[pY]LL-NH2), the Activity [2] was “inactive”, the Activity [20] was “Active” and the Stability [3] was “Stable”. For the same compound, the Activity [21] was “Active; Compound Showed Excellent Tolerance Towards Salt Environment”, the MIC [7] was 8 µM (≈ 11.2 µg/mL) and the MHC [9] was > 256 µM. The Activity [22] was “Active”, the Activity [23] was “Toxic” and the Activity [24] was “Active; Antibacterial Activity Remained Unaffected”. The Activity [25] was “Active; Compound Showed Excellent Tolerance Towards Salt Environment”, the Activity [26] was “Toxic” and the Activity [27] was “Active”. For the same compound, the MIC [11] was 8 µM (≈ 11.2 µg/mL), the Activity [28] was “Active” and the Activity [12] was “Dose-dependent-effect; Superior Activity Compared To Polymyxin B And Vancomycin”. For the same compound, the Activity [29] was “Toxic”, the “fold change (FC)” value [30] was 2 and the Activity [31] was “Active; Compound Showed Excellent Tolerance Towards Salt Environment”. The MIC [13] was 8 µM (≈ 11.2 µg/mL), the Activity [32] was “Toxic” and the Activity [33] was “Active”. The MIC [14] was 8 µM (≈ 11.2 µg/mL), the Activity [34] was “Active; Compound Showed Excellent Tolerance Towards Salt Environment” and the Activity [16] was “Dose-dependent-effect; Superior Activity Compared To Polymyxin B And Vancomycin”. For the same compound, the Activity [35] was “Active”, the Activity [36] was 100% and the Activity [18] was “Active; Activity Comparable To Polymyxin B”. The MIC [19] was 8 µM (≈ 11.2 µg/mL), the Activity [37] was “Toxic” and the Activity [38] was “Active; Antibacterial Activity Remained Unaffected”.
